Source: patent US11084795B2, “CFTR regulators and methods of use thereof” (The Regents of the University of California, priority 2015, dated 2021)
Entries after “also recorded” stand apart in the source; their conditions may differ.

Legend:
[1] = test system: cellular cAMP; assay: GloSensor cAMP assay in FRT cells; format: cell-based, rat; settings: 1c at 10 μM
Description: Intracellular cAMP activity was measured using a GloSensor luminescence assay (Promega Corp., Madison, Wisconson, USA). FRT null cells were stably transfected with the pGloSensor cAMP plasmid and plated onto white 96-well microplates and grown to confluence. Cells were washed three times with PBS and incubated with 5 μM CFTRact-J027 for 10 min in the absence and presence of 100 nM forskolin. cAMP was assayed according to the manufacturer's instructions.
Intracellular cAMP activity was measured using a GloSensor luminescence assay (Promega Corp., Madison, Wis., USA). FRT cells stably transfected with the pGloSensor cAMP plasmid (Promega Corp.) were cultured in white 96-well microplates (Corning Costar) overnight. Cells were then washed three times with PBS and incubated with 5 μM test compound for 10 min in the absence and presence of 100 nM forskolin.
cAMP assay. Intracellular cAMP activity was measured using a GloSensor luminescence assay (Promega Corp., Madison, Wisconson, USA). FRT null cells were stably transfected with the pGloSensor cAMP plasmid and plated onto white 96-well microplates and grown to confluence. […]
cAMP and cytotoxicity assays. Intracellular cAMP activity was measured using a GloSensor luminescence assay (Promega Corp., Madison, Wis., USA). […]

[2] = In vitro metabolic stability in mouse liver microsomes; format: in vitro ADME; settings: mouse hepatic microsomes, NADPH
Description: (§1) CFTRact-J027 (5 μM) was incubated for specified times at 37° C. with mouse liver microsomes (1 mg protein/ml; Sigma-Aldrich) in potassium phosphate buffer (100 mM) containing 1 mM NADPH, as described. The mixture was then chilled on ice, and 0.5 ml of ice-cold ethyl acetate was added. Samples were centrifuged for 15 min at 3000 rpm, the supernatant evaporated to dryness, and the residue was dissolved in 100 μL mobile phase (acetonitrile:water, 3:1) for LC/MS and assayed as described above.
as §1, with “In vitro metabolic stability. CFTRact-J027” for “CFTRact-J027”
In vitro metabolic stability. Test compound (at 5 μM) was incubated for specified times at 37° C. with mouse liver microsomes (1 mg protein/ml; Sigma-Aldrich, St. Louis, Mo.) in potassium phosphate buffer containing 1 mM NADPH, as described. Following ethyl acetate extraction, non-metabolized parent compound was assayed by LC/MS.

[3] = test system: cytoplasmic calcium; assay: Cytoplasmic calcium (Fluo-4) in FRT cells; format: cell-based, rat; settings: 1c at 10 μM; ATP as calcium agonist
Description: FIGS. 23A-23D. In vitro characterization of compound 1c. FIG. 23A. Cellular cAMP in FRT cells in response to incubation for 10 min with […] 1c without or with 90 nM forskolin (fsk). Positive controls included fsk (100 nM and 20 pM) and fsk+IBMX (20 pM+100 pM) (mean±S.E.M., n=4). FIG. 23B. Cytoplasmic calcium measured by Fluo-4 fluorescence. FRT cells were pretreated for 5 min with 10 pM 1c (or control), with 100 pM ATP added as a calcium agonist as indicated. FIG. 23C. […] FIG. 23D.

[4] = test system: calcium-activated chloride channels in HT-29 cells; assay: CaCC activity in HT-29 cells expressing YFP; format: cell-based; settings: 1c at 10 μM
[5] = test system: TMEM16A; assay: TMEM16A activity in FRT cells expressing YFP and TMEM16A; format: cell-based; settings: 1c at 10 μM
[6] = test system: loperamide-treated mice; assay: Loperamide-induced mouse model of constipation; settings: 1c orally 1 h prior to loperamide, 3-h stool
[7] = target: T1, human wildtype CFTR (Homo sapiens, UniProt P13569); assay: Short-circuit current (Isc) in FRT cells expressing human wild-type CFTR; settings: read-out: EC50 for CFTR activation; FRT cells, wild-type CFTR, short-circuit current
[8] = target: T1, human wildtype CFTR; assay: Fluorescence plate reader assay of iodide influx in FRT cells co-expressing CFTR and YFP halide sensor

T1 sequence (P13569 whole entry): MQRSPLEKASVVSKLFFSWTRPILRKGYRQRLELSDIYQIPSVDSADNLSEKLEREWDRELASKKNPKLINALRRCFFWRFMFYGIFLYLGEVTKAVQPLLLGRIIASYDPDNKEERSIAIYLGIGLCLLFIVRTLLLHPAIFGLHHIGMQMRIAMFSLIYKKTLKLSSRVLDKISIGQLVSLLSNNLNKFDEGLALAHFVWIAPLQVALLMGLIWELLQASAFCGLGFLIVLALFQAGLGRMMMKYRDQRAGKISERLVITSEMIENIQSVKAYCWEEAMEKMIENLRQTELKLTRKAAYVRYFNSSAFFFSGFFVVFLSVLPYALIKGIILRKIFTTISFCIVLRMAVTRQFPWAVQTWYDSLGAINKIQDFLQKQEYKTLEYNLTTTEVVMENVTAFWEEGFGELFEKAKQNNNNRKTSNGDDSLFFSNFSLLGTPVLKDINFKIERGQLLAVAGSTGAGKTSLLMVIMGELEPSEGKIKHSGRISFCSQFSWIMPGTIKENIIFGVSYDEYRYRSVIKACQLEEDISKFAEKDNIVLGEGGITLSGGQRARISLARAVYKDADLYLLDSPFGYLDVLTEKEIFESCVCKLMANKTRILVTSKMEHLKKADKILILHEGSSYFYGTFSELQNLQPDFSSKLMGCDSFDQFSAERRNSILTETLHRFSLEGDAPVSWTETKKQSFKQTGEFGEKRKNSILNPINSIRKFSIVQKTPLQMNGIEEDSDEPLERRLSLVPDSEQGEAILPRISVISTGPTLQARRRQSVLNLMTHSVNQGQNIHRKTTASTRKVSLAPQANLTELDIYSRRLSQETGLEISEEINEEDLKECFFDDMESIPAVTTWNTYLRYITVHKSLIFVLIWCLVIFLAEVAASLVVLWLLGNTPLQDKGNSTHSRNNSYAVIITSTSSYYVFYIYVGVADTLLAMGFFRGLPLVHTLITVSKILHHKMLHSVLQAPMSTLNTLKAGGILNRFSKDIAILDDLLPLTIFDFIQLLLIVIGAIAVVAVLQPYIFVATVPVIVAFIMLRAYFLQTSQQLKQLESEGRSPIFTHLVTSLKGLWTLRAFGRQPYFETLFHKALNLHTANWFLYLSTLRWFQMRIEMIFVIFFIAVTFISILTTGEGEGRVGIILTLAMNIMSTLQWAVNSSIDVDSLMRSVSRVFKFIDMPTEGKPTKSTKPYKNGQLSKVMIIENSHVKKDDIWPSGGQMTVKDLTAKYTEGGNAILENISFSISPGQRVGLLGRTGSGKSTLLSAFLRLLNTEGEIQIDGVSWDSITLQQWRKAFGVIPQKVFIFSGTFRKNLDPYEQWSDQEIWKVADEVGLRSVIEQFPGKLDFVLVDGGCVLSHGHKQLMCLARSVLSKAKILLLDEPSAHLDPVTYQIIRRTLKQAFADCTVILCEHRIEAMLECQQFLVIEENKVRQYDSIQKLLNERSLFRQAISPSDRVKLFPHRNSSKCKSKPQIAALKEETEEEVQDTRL

- compound metabolized at 60 min [2]: < 40%
- EC50 [7]: 21 nM
- increased potency compared to 4 ([8]; plate reader assay): ~10 fold
- EC50 ([8]; read-out: EC50, variation in the 3-aryl ring, plate reader assay): 9 nM
- EC50 ([8]; synthesized compounds, full dose-response study, 125 nM forskolin): 9 nM
Compound: O=c1c(-c2cccc([N+](=O)[O-])c2)nc2ccccc2n1Cc1ccccc1 [Compound 1c, 1-Benzyl-3-(3-nitrophenyl)quinoxalin-2(1H)-one]
- effect on cellular cAMP level [1]: did not affect the cellular cAMP level
- cytoplasmic calcium [3]: nor did it elevate cytoplasmic calcium or inhibit the ATP-stimulated elevation in cytoplasmic calcium
- activation or inhibition of calcium-activated chloride channels in HT-29 cells [4]: no activation (iodide addition) or inhibition (iodide+ATP addition); also recorded: neither inhibited nor activated
- activation or inhibition of TMEM16A [5]: no activation (iodide addition) or inhibition (iodide+ATP addition); also recorded: neither inhibited nor activated
- stool weight, pellet number and hydration [6]: fully normalized stool weight, pellet number and hydration
